From the supplement of paper PMC11061612

What was measured:
Assay in all cases: Bliss excess, mean over the matrix (fraction); higher = more synergy
8-MG-BA (Glioblastoma) = test system: 8-MG-BA (Glioblastoma)
In short: (§1)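 Cell lines grown in DMEM/F12 or RPMI with 10% FBS were plated in 1536-well plates and held 24 hours at 37°C, 5% CO2 before 72 hours of exposure to two-drug dose matrices, with DMSO typically at 0.2%. CellTiter-Glo 2.0 luminescence gave viability, which was converted to inhibition. Vehicle wells were set to 0 and blank wells to 1. Combination Emax is the second-highest inhibition in the matrix, and Bliss excess is the observed combination effect minus the expected EA + EB − EA·EB, where EA and EB are the single-agent effects.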

[1] = test system: A3-KAW (B-Cell Non-Hodgkin's Lymphoma)
In short: as §1

[2] = test system: A549 (Lung Adenocarcinoma)
In short: as §1

CAS-1 (Glioblastoma) = test system: CAS-1 (Glioblastoma)
In short: as §1

[3] = test system: CCK-81 (Colorectal Carcinoma)
In short: as §1

[4] = test system: ECC10 (Gastric Carcinoma)
In short: as §1

FU97 (Gastric Carcinoma) = test system: FU97 (Gastric Carcinoma)
In short: as §1

[5] = test system: HCC1954 (Breast Carcinoma)
In short: as §1

Hs-445 (Non-Cancerous) = test system: Hs-445 (Non-Cancerous)
In short: as §1

[6] = test system: JSC-1 (B-Cell Non-Hodgkin's Lymphoma)
In short: as §1

[7] = test system: MDST8 (Colorectal Carcinoma)
In short: as §1

[8] = test system: NCI-H1581 (Non-Small Cell Lung Carcinoma)
In short: as §1

[9] = test system: NCI-H2141 (Small Cell Lung Carcinoma)
In short: as §1

NCI-H2591 (Mesothelioma) = test system: NCI-H2591 (Mesothelioma)
In short: as §1

NY (Osteosarcoma) = test system: NY (Osteosarcoma)
In short: as §1

[10] = test system: SK-MG-1 (Low Grade Glioma)
In short: as §1

[11] = test system: TT (Thyroid Gland Carcinoma)
In short: as §1

[12] = test system: TT2609-C02 (Thyroid Gland Carcinoma)
In short: as §1

U-2-OS (Osteosarcoma) = test system: U-2-OS (Osteosarcoma)
In short: as §1

[13] = test system: VCaP (Prostate Carcinoma)
In short: as §1

| Structure (SMILES) | Bliss excess (8-MG-BA (Glioblastoma)) | Bliss excess [1] | Bliss excess [2] | Bliss excess (CAS-1 (Glioblastoma)) | Bliss excess [3] | Bliss excess [4] | Bliss excess (FU97 (Gastric Carcinoma)) | Bliss excess [5] | Bliss excess (Hs-445 (Non-Cancerous)) | Bliss excess [6] | Bliss excess [7] | Bliss excess [8] | Bliss excess [9] | Bliss excess (NCI-H2591 (Mesothelioma)) | Bliss excess (NY (Osteosarcoma)) | Bliss excess [10] | Bliss excess [11] | Bliss excess [12] | Bliss excess (U-2-OS (Osteosarcoma)) | Bliss excess [13] |
| --- | --- | --- | --- | --- | --- | --- | --- | --- | --- | --- | --- | --- | --- | --- | --- | --- | --- | --- | --- | --- |
| Cc1nc(Nc2ncc(C(=O)Nc3c(C)cccc3Cl)s2)cc(N2CCN(CCO)CC2)n1 [Dasatinib] + CC(=O)Nc1cccc(-n2c(=O)n(C3CC3)c(=O)c3c(Nc4ccc(I)cc4F)n(C)c(=O)c(C)c32)c1 [Trametinib] (first compound max 2 µM, 7x7, partner max 1 µM) | 0.0219 | 0.0863 | 0.0224 | -0.107 | -0.057 | -0.0334 | 0.0039 | 0.0318 | -0.0873 | -0.117 | -0.106 | -0.0416 | -0.0362 | -0.0757 | 0.034 | -0.0654 | -0.0272 | 0.0898 | -0.0411 | -0.0396 |
| COc1cccc2c1C(=O)c1c(O)c3c(c(O)c1C2=O)C[C@@](O)(C(=O)CO)C[C@@H]3O[C@H]1C[C@H](N)[C@H](O)[C@H](C)O1 [Doxorubicin] + Cc1cc2ncnn2cc1Nc1ncc2c(n1)n(C1CCOCC1)c(=O)n2C [AZD7648] (first compound max 1 µM, 7x7, partner max 10 µM) | 0.0675 | 0.0751 | 0.0564 | 0.105 | 0.0481 | 0.0602 | -0.0094 | 0.0849 | 0.102 | 0.063 | 0.0756 | 0.0529 | 0.0099 | 0.0556 | 0.0578 | 0.133 | 0.01 | 0.0486 | 0.0234 | 0.0275 |
| COc1cc2ncnc(Nc3ccc(F)c(Cl)c3)c2cc1OCCCN1CCOCC1 [Gefitinib] + CC(C)n1c(=O)n(C)c2cnc3cc(F)c(-c4ccc(OCCCN5CCCCC5)nc4)cc3c21 [AZD1390] (first compound max 10 µM, 7x7, partner max 0.3 µM) | -0.0604 | -0.0098 | -0.0544 | -0.0603 | -0.072 | -0.0231 | -0.0177 | -0.0366 | -0.0356 | -0.0911 | -0.0584 | -0.0457 | -0.0464 | -0.0801 | -0.0355 | -0.078 | -0.0526 | -0.0716 | -0.0496 | -0.0429 |
| CS(=O)(=O)CCNCc1ccc(-c2ccc3ncnc(Nc4ccc(OCc5cccc(F)c5)c(Cl)c4)c3c2)o1 [Lapatinib] + C[C@@H](Oc1cc(-c2cnn(C3CCNCC3)c2)cnc1N)c1c(Cl)ccc(F)c1Cl [Crizotinib] (first compound max 10 µM, 7x7, partner max 10 µM) | -0.0365 | 0.0316 | -0.0606 | -0.0634 | -0.0255 | -0.0434 | -0.0144 | 0.0048 | 0.0147 | -0.0008 | -0.0095 | 0.0208 | -0.0758 | -0.0493 | -0.0118 | -0.0513 | -0.002 | -0.023 | -0.0263 | -0.0653 |
| CC(=O)c1c(C)c2cnc(Nc3ccc(N4CCNCC4)cn3)nc2n(C2CCCC2)c1=O [Palbociclib] + CC1(C)CCC(CN2CCN(c3ccc(C(=O)NS(=O)(=O)c4ccc(NCC5CCOCC5)c([N+](=O)[O-])c4)c(Oc4cnc5[nH]ccc5c4)c3)CC2)=C(c2ccc(Cl)cc2)C1 [Venetoclax] (first compound max 10 µM, 7x7, partner max 1 µM) | 0.0049 | -0.0332 | -0.0056 | -0.009 | -0.0761 | 0.0269 | -0.0281 | -0.0424 | 0.119 | -0.0127 | -0.0059 | -0.029 | -0.0298 | 0.0045 | -0.0479 | -0.0134 | 0.0138 | 0.0069 | -0.0275 | -0.0076 |
| CC(=O)c1c(C)c2cnc(Nc3ccc(N4CCNCC4)cn3)nc2n(C2CCCC2)c1=O [Palbociclib] + Cc1c2c(nn1C)CSCc1cc(n(C)n1)CSc1cc(c3ccccc3c1)OCCCc1c(C(=O)O)n(C)c3c-2c(Cl)ccc13 [AZD5991] (first compound max 10 µM, 7x7, partner max 1 µM) | -0.0424 | -0.0158 | 0.0338 | 0.0001 | 0.0565 | 0.0435 | 0.0142 | -0.09 | -0.0598 | -0.0567 | -0.0134 | -0.0173 | -0.0791 | -0.0328 | -0.0358 | -0.0698 | 0.0684 | -0.0822 | -0.0224 | -0.0284 |
| CC(=O)c1c(C)c2cnc(Nc3ccc(N4CCNCC4)cn3)nc2n(C2CCCC2)c1=O [Palbociclib] + Cn1cnc2c(F)c(Nc3ccc(Br)cc3Cl)c(C(=O)NOCCO)cc21 [Selumetinib] (first compound max 10 µM, 7x7, partner max 10 µM) | -0.0061 | 0.182 | -0.0413 | -0.018 | 0.0832 | -0.0111 | 0.0707 | -0.0152 | -0.0852 | 0.0842 | -0.031 | 0.0466 | -0.0432 | -0.0161 | -0.0227 | 0.0489 | 0.0418 | -0.0666 | -0.0134 | -0.012 |
| COc1cccc(OCCCN)c1-c1cc(Nc2cnc(C#N)cn2)n[nH]1 [Prexasertib] + C=CCn1c(=O)c2cnc(Nc3ccc(N4CCN(C)CC4)cc3)nc2n1-c1cccc(C(C)(C)O)n1 [AZD1775] (first compound max 1 µM, partner max 1 µM) | 0.0358 | 0.0424 | 0.139 | -0.0363 | 0.0523 | 0.115 | 0.0052 | 0.114 | -0.0366 | 0.0682 | 0.0758 | 0.155 | -0.0348 | 0.0951 | -0.008 | 0.0712 | -0.103 | 0.0015 | 0.0506 | 0.022 |
| COc1cccc(OCCCN)c1-c1cc(Nc2cnc(C#N)cn2)n[nH]1 [Prexasertib] + CCc1c2c(nc3ccc(O)cc13)-c1cc3c(c(=O)n1C2)COC(=O)[C@]3(O)CC [SN-38] (first compound max 1 µM, 7x7, partner max 0.3 µM) | -0.0166 | 0.0247 | -0.0361 | 0.0383 | -0.0968 | 0.0145 | -0.032 | 0.123 | -0.0189 | -0.0739 | -0.1 | 0.196 | 0.0455 | -0.0353 | -0.0647 | 0.0719 | -0.0758 | -0.0467 | -0.0551 | -0.0541 |
| COc1cccc(OCCCN)c1-c1cc(Nc2cnc(C#N)cn2)n[nH]1 [Prexasertib] + CN(C)CCCOc1ccc(-c2ccc3ncc4c(c3c2)n(C2CCOCC2)c(=O)n4C)cn1 [AZD0156] (first compound max 1 µM, 7x7, partner max 1 µM) | -0.0349 | 0.0134 | -0.0276 | -0.0336 | -0.0133 | 0.0071 | -0.0321 | -0.0298 | -0.0286 | -0.0111 | -0.0216 | 0.0112 | 0.009 | -0.0141 | 0.0007 | -0.0321 | -0.004 | -0.0426 | 0.0176 | -0.0463 |
| COc1cccc(OCCCN)c1-c1cc(Nc2cnc(C#N)cn2)n[nH]1 [Prexasertib] + C[C@@H]1COCCN1C2=NC(=NC(=C2)C3(CC3)[S@](=N)(=O)C)C4=C5C=CNC5=NC=C4 [AZD6738] (first compound max 1 µM, 7x7, partner max 10 µM) | -0.0239 | 0.0104 | 0.0241 | -0.0095 | -0.0277 | 0.0929 | -0.0427 | 0.0079 | -0.0661 | -0.0089 | -0.0209 | 0.0436 | -0.047 | 0.0187 | -0.0031 | -0.0012 | 0.0244 | -0.0002 | -0.0426 | -0.0267 |
| COc1cccc(OCCCN)c1-c1cc(Nc2cnc(C#N)cn2)n[nH]1 [Prexasertib] + Cc1cc2ncnn2cc1Nc1ncc2c(n1)n(C1CCOCC1)c(=O)n2C [AZD7648] (first compound max 1 µM, 7x7, partner max 10 µM) | -0.058 | 0.0126 | 0.0532 | -0.0053 | -0.0134 | 0.006 | -0.0265 | -0.0179 | -0.02 | -0.0189 | -0.0217 | 0.022 | -0.0315 | -0.0079 | -0.0328 | -0.0257 | -0.0144 | -0.0157 | -0.0223 | -0.0509 |
| COc1cccc(OCCCN)c1-c1cc(Nc2cnc(C#N)cn2)n[nH]1 [Prexasertib] + O=C(c1cc(Cc2n[nH]c(=O)c3ccccc23)ccc1F)N1CCN(C(=O)C2CC2)CC1 [Olaparib] (first compound max 1 µM, 7x7, partner max 10 µM) | 0.0262 | -0.0146 | -0.0109 | -0.0979 | -0.12 | -0.0685 | -0.0288 | -0.0566 | -0.0358 | -0.0179 | -0.0484 | 0.0257 | -0.0509 | -0.0683 | -0.0128 | 0.0026 | -0.141 | -0.0062 | -0.0478 | -0.041 |
| COc1cc2c(cc1OCCCCCOc1cc3c(cc1OC)C(=O)N1C=C(C)C[C@H]1C=N3)N=C[C@@H]1CC(C)=CN1C2=O [SG3199] + O=C(c1cc(Cc2n[nH]c(=O)c3ccccc23)ccc1F)N1CCN(C(=O)C2CC2)CC1 [Olaparib] (first compound max 0.001 µM, 7x7, partner max 10 µM) | 0.011 | -0.0286 | -0.0226 | -0.0058 | 0.0003 | -0.0238 | -0.0513 | -0.0356 | -0.0116 | -0.0344 | -0.0151 | -0.0322 | -0.0682 | -0.0414 | -0.0456 | -0.0009 | -0.0645 | -0.0234 | -0.0203 | -0.0455 |
| CCc1c2c(nc3ccc(O)cc13)-c1cc3c(c(=O)n1C2)COC(=O)[C@]3(O)CC [SN-38] + CN(C)CCCOc1ccc(-c2ccc3ncc4c(c3c2)n(C2CCOCC2)c(=O)n4C)cn1 [AZD0156] (first compound max 0.3 µM, 7x7, partner max 1 µM) | 0.0392 | 0.0988 | 0.0128 | -0.0101 | 0.135 | -0.143 | -0.0484 | 0.035 | -0.018 | -0.0046 | 0.0171 | 0.016 | 0.0219 | -0.0118 | -0.0288 | 0.23 | -0.119 | 0.0068 | -0.0193 | -0.018 |
